# Measurements published in ChEMBL document CHEMBL3400091, “4-Dechloro-14-deoxy-oxacyclododecindione and 14-deoxy-oxacylododecindione, two inhibitors of inducible connective tissue growth factor expression from the imperfect fungus Exserohilum rostratum” (Bioorg Med Chem, 2015).
# Active and inactive are the calls of the source. The rule behind the calls is not given here.
# Legend:
# [1] = (§1) Inhibition of TGF-beta-induced human CTGF promoter activity transiently transfected in human HepG2 cells after 16 hrs by luciferase reporter assay; assay type: cell-based; conditions: HepG2, 16 h
# HepG2 [2] = test: as §1; assay type: cell-based
# HepG2 [3] = test: Inhibition of TGF-beta-induced human CTGF promoter activity transiently transfected in human HepG2 cells assessed as CTGF expression preincubated at 680 nM for 1 hr before TGF-beta stimulation measured after 4 hrs by quantitative real-time PCR analysis; assay type: cell-based
# HepG2 [4] = test: Inhibition of TGF-beta-induced human CTGF promoter activity transiently transfected in human HepG2 cells assessed as CTGF protein expression preincubated at 407 nM for 1 hr before TGF-beta stimulation measured after 8 hrs by Western blot analysis; assay type: cell-based
# HepG2 [5] = test: Inhibition of TGF-beta-induced human CTGF promoter activity transiently transfected in human HepG2 cells assessed as reduction in type 1 collagen alpha1 expression preincubated at 680 nM for 1 hr before TGF-beta stimulation measured after 6 hrs by quantitative real-time PCR analysis; assay type: cell-based
# HepG2 [6] = test: Inhibition of TGF-beta-induced human CTGF promoter activity transiently transfected in human HepG2 cells assessed as reduction in alpha-smooth muscle actin expression preincubated at 680 nM for 1 hr before TGF-beta stimulation measured after 6 hrs by quantitative real-time PCR analysis; assay type: cell-based
# [7] = (§2) Binding affinity to (AGCCAGACA)9-MLP element (unknown origin) transiently transfected in human HepG2 cells assessed as inhibition of TGF-beta-induced Smad-dependent transcriptional activity preincubated for 1 hr before TGF-beta stimulation measured after 16 hrs by luciferase reporter assay; assay type: cell-based
# HepG2 [8] = test: Inhibition of TGF-beta-induced human CTGF promoter activity transiently transfected in human HepG2 cells assessed as reduction in mmp2 expression preincubated at 680 nM for 1 hr before TGF-beta stimulation measured after 6 hrs by quantitative real-time PCR analysis; assay type: cell-based
# HepG2 [9] = test: Inhibition of TGF-beta-induced human CTGF promoter activity transiently transfected in human HepG2 cells assessed as reduction in tgf-beta expression preincubated at 680 nM for 1 hr before TGF-beta stimulation measured after 6 hrs by quantitative real-time PCR analysis; assay type: cell-based
# HepG2 [10] = test: Inhibition of TGF-beta-induced human CTGF promoter activity transiently transfected in human HepG2 cells assessed as reduction in plasminogen activator inhibitor-1 expression preincubated at 680 nM for 1 hr before TGF-beta stimulation measured after 6 hrs by quantitative real-time PCR analysis; assay type: cell-based
# MDA-MB-231 [11] = test: Antimigratory activity against human MDA-MB-231 cells assessed as reduction in formation of tubule-like structures at 136 nM after 16 hrs by matrigel assay relative to control; assay type: functional; parameters: scale not given: the % may be the effect or the level left
# MDA-MB-231 [12] = test: Antimigratory activity against human MDA-MB-231 cells assessed as reduction in formation of tubule-like structures after 16 hrs by matrigel assay relative to control; assay type: functional, cell-based
# HepG2 [13] = test: Inhibition of TGF-beta-induced human CTGF promoter activity transiently transfected in human HepG2 cells assessed as CTGF expression preincubated at 700 nM for 1 hr before TGF-beta stimulation measured after 4 hrs by quantitative real-time PCR analysis; assay type: cell-based
# HepG2 [14] = test: Inhibition of TGF-beta-induced human CTGF promoter activity transiently transfected in human HepG2 cells assessed as CTGF protein expression preincubated at 714 nM for 1 hr before TGF-beta stimulation measured after 8 hrs by Western blot analysis; assay type: cell-based
# HepG2 [15] = test: Inhibition of TGF-beta-induced human CTGF promoter activity transiently transfected in human HepG2 cells assessed as reduction in alpha-smooth muscle actin expression preincubated at 700 nM for 1 hr before TGF-beta stimulation measured after 6 hrs by quantitative real-time PCR analysis; assay type: cell-based
# HepG2 [16] = test: Inhibition of TGF-beta-induced human CTGF promoter activity transiently transfected in human HepG2 cells assessed as reduction in type 1 collagen alpha1 expression preincubated at 700 nM for 1 hr before TGF-beta stimulation measured after 6 hrs by quantitative real-time PCR analysis; assay type: cell-based
# HepG2 [17] = test: Inhibition of TGF-beta-induced human CTGF promoter activity transiently transfected in human HepG2 cells assessed as reduction in mmp2 expression preincubated at 700 nM for 1 hr before TGF-beta stimulation measured after 6 hrs by quantitative real-time PCR analysis; assay type: cell-based
# HepG2 [18] = test: Inhibition of TGF-beta-induced human CTGF promoter activity transiently transfected in human HepG2 cells assessed as reduction in tgf-beta expression preincubated at 700 nM for 1 hr before TGF-beta stimulation measured after 6 hrs by quantitative real-time PCR analysis; assay type: cell-based
# HepG2 [19] = test: Inhibition of TGF-beta-induced human CTGF promoter activity transiently transfected in human HepG2 cells assessed as reduction in plasminogen activator inhibitor-1 expression preincubated at 700 nM for 1 hr before TGF-beta stimulation measured after 6 hrs by quantitative real-time PCR analysis; assay type: cell-based
# MDA-MB-231 [20] = test: Antimigratory activity against human MDA-MB-231 cells assessed as reduction in formation of tubule-like structures at 568 nM after 16 hrs by matrigel assay relative to control; assay type: functional; parameters: scale not given: the % may be the effect or the level left
# HepG2 [21] = test: Cytotoxicity against human HepG2 cells at 1.4 uM after 48 hrs by XTT assay; assay type: cell-based; conditions: hepg2, 48 h
# MDA-MB-231 [22] = test: Cytotoxicity against human MDA-MB-231 cells at 1.4 uM after 48 hrs by XTT assay; assay type: cell-based; conditions: mda-mb-231, 48 h
# MDA-MB-231 [23] = test: Antimigratory activity against human MDA-MB-231 cells assessed as reduction in formation of tubule-like structures at 275 nM after 16 hrs by matrigel assay relative to untreated control; assay type: functional; parameters: scale not given: the % may be the effect or the level left
# HepG2 [24] = test: Inhibition of TGF-beta-induced human CTGF promoter activity transiently transfected in human HepG2 cells assessed as CTGF expression preincubated at 3.2 uM for 1 hr before TGF-beta stimulation measured after 4 hrs by quantitative real-time PCR analysis; assay type: cell-based
# HepG2 [25] = test: Inhibition of TGF-beta-induced human CTGF promoter activity transiently transfected in human HepG2 cells assessed as CTGF protein expression preincubated at 3144 nM for 1 hr before TGF-beta stimulation measured after 8 hrs by Western blot analysis; assay type: cell-based
# HepG2 [26] = test: as §2, with “activity measured as remaining activity” for “activity”, “preincubated at 2.2 uM” for “preincubated”; assay type: cell-based
# HepG2 [27] = test: Inhibition of TGF-beta-induced human CTGF promoter activity transiently transfected in human HepG2 cells assessed as reduction in alpha-smooth muscle actin expression preincubated at 3.2 uM for 1 hr before TGF-beta stimulation measured after 6 hrs by quantitative real-time PCR analysis; assay type: cell-based
# HepG2 [28] = test: Inhibition of TGF-beta-induced human CTGF promoter activity transiently transfected in human HepG2 cells assessed as reduction in type 1 collagen alpha1 expression preincubated at 3.2 uM for 1 hr before TGF-beta stimulation measured after 6 hrs by quantitative real-time PCR analysis; assay type: cell-based
# HepG2 [29] = test: Inhibition of TGF-beta-induced human CTGF promoter activity transiently transfected in human HepG2 cells assessed as reduction in mmp2 expression preincubated at 3.2 uM for 1 hr before TGF-beta stimulation measured after 6 hrs by quantitative real-time PCR analysis; assay type: cell-based
# HepG2 [30] = test: Inhibition of TGF-beta-induced human CTGF promoter activity transiently transfected in human HepG2 cells assessed as reduction in tgf-beta expression preincubated at 3.2 uM for 1 hr before TGF-beta stimulation measured after 6 hrs by quantitative real-time PCR analysis; assay type: cell-based
# HepG2 [31] = test: Inhibition of TGF-beta-induced human CTGF promoter activity transiently transfected in human HepG2 cells assessed as reduction in plasminogen activator inhibitor-1 expression preincubated at 3.2 uM for 1 hr before TGF-beta stimulation measured after 6 hrs by quantitative real-time PCR analysis; assay type: cell-based
# HepG2 [32] = test: Cytotoxicity against human HepG2 cells at 3.2 uM after 48 hrs by XTT assay; assay type: cell-based; conditions: hepg2, 48 h
# MDA-MB-231 [33] = test: Cytotoxicity against human MDA-MB-231 cells at 3.2 uM after 48 hrs by XTT assay; assay type: cell-based; conditions: mda-mb-231, 48 h
# MDA-MB-231 [34] = test: Antimigratory activity against human MDA-MB-231 cells assessed as reduction in formation of tubule-like structures at 2.4 uM after 16 hrs by matrigel assay relative to control; assay type: functional, cell-based
smiles,measurement,setting,value
C/C1=C\CCC(C)(O)C(C)OC(=O)Cc2c(Cl)c(O)cc(O)c2C1=O (stereo unspecified),IC50,[1],136 nM
same,inhibition,HepG2 [2],Dose-dependent effect
same,inhibition,HepG2 [3],Active
same,inhibition,HepG2 [4],Active
same,inhibition,HepG2 [5],Active
same,inhibition,HepG2 [6],Active
same,IC50,[7],136 nM
same,inhibition,HepG2 [8],Active
same,inhibition,HepG2 [9],Active
same,inhibition,HepG2 [10],Active
same,Activity,MDA-MB-231 [11],>70%
same,Activity,MDA-MB-231 [12],Dose-dependent effect
C[C@H]1CCCCCC(=O)c2c(O)cc(O)cc2CC(=O)O1,IC50,[1],86400 nM
same,IC50,[7],34200 nM
C/C1=C\CCC(C)C(C)OC(=O)Cc2c(Cl)c(O)cc(O)c2C1=O (stereo unspecified),IC50,[1],336 nM
same,inhibition,HepG2 [2],Dose-dependent effect
same,inhibition,HepG2 [13],Active
same,inhibition,HepG2 [14],inactive
same,IC50,[7],210 nM
same,inhibition,HepG2 [15],Active
same,inhibition,HepG2 [16],Active
same,inhibition,HepG2 [17],Active
same,inhibition,HepG2 [18],Active
same,inhibition,HepG2 [19],Active
same,Activity,MDA-MB-231 [20],>70%
same,Activity,HepG2 [21],Non-toxic
same,Activity,MDA-MB-231 [22],Non-toxic
same,Activity,MDA-MB-231 [12],Dose-dependent effect
c1ccc(-c2n[nH]cc2-c2ccnc3ccccc23)nc1,Activity,MDA-MB-231 [23],30%
C/C1=C\CCC(C)C(C)OC(=O)Cc2cc(O)cc(O)c2C1=O (stereo unspecified),IC50,[1],1800 nM
same,inhibition,HepG2 [2],Dose-dependent effect
same,inhibition,HepG2 [24],Active
same,inhibition,HepG2 [25],inactive
same,IC50,[7],> 2200 nM
same,inhibition,HepG2 [26],Active
same,inhibition,HepG2 [27],Active
same,inhibition,HepG2 [28],Active
same,inhibition,HepG2 [29],Active
same,inhibition,HepG2 [30],Active
same,inhibition,HepG2 [31],Active
same,Activity,HepG2 [32],Non-toxic
same,Activity,MDA-MB-231 [33],Non-toxic
same,Activity,MDA-MB-231 [34],Active
same,Activity,MDA-MB-231 [12],Dose-dependent effect
C[C@H]1CCC/C=C/C(=O)c2c(O)cc(O)cc2CC(=O)O1 [DEHYDROCURVULARIN],IC50,[1],4400 nM
same,IC50,[7],1700 nM
